≈ marks a conversion by molar mass, not a printed value.
Experiments:
Assay type in all cases: functional
Staphylococcus aureus [1] = assay: Antibacterial activity against Staphylococcus aureus KCTC 4220 after 24 hrs by two-fold serial dilution method; settings: KCTC 4220, 24 h
Staphylococcus aureus [2] = assay: Antibacterial activity against Staphylococcus aureus KCTC 209 after 24 hrs by two-fold serial dilution method; settings: KCTC 209, 24 h
Staphylococcus aureus [3] = assay: Antibacterial activity against Staphylococcus aureus KCTC 503 after 24 hrs by two-fold serial dilution method; settings: KCTC 503, 24 h
Escherichia coli = assay: Antibacterial activity against Escherichia coli 1356 after 24 hrs by two-fold serial dilution method; settings: Escherichia coli, 1356, 24 h
Staphylococcus aureus [4] = assay: Ratio of MIC for norfloxacin to compound for Staphylococcus aureus KCTC 4220 after 24 hrs by two-fold serial dilution method
Staphylococcus aureus [5] = assay: Ratio of MIC for norfloxacin to compound for Staphylococcus aureus KCTC 209 after 24 hrs by two-fold serial dilution method
Staphylococcus aureus [6] = assay: Ratio of MIC for norfloxacin to compound for Staphylococcus aureus KCTC 503 after 24 hrs by two-fold serial dilution method
Staphylococcus aureus [7] = assay: Antibacterial activity against methicillin-resistant Staphylococcus aureus CCARM 3167 after 24 hrs by two-fold serial dilution method; settings: CCARM 3167, 24 h
Staphylococcus aureus [8] = assay: Antibacterial activity against methicillin-resistant Staphylococcus aureus CCARM 3506 after 24 hrs by two-fold serial dilution method; settings: CCARM 3506, 24 h
Staphylococcus aureus [9] = assay: Antibacterial activity against quinolone-resistant Staphylococcus aureus CCARM 3505 after 24 hrs by two-fold serial dilution method; settings: CCARM 3505, 24 h
Staphylococcus aureus [10] = assay: Antibacterial activity against quinolone-resistant Staphylococcus aureus CCARM 3519 after 24 hrs by two-fold serial dilution method; settings: CCARM 3519, 24 h
Staphylococcus aureus [11] = assay: Ratio of MIC for norfloxacin to compound for methicillin-resistant Staphylococcus aureus CCARM 3167 after 24 hrs by two-fold serial dilution method
Staphylococcus aureus [12] = assay: Ratio of MIC for norfloxacin to compound for methicillin-resistant Staphylococcus aureus CCARM 3506 after 24 hrs by two-fold serial dilution method
Staphylococcus aureus [13] = assay: Ratio of MIC for oxacillin to compound for methicillin-resistant Staphylococcus aureus CCARM 3167 after 24 hrs by two-fold serial dilution method
Staphylococcus aureus [14] = assay: Ratio of MIC for oxacillin to compound for methicillin-resistant Staphylococcus aureus CCARM 3506 after 24 hrs by two-fold serial dilution method
Staphylococcus aureus [15] = assay: Ratio of MIC for norfloxacin to compound for quinolone-resistant Staphylococcus aureus CCARM 3505 after 24 hrs by two-fold serial dilution method
Staphylococcus aureus [16] = assay: Ratio of MIC for norfloxacin to compound for quinolone-resistant Staphylococcus aureus CCARM 3519 after 24 hrs by two-fold serial dilution method

`O=C(COc1ccc(/C=C2\SC(=S)N([C@@H](Cc3c[nH]c4ccccc34)C(=O)O)C2=O)cc1)c1ccc(Cl)cc1` showed an MIC (Staphylococcus aureus [1]) of 1 µg/mL (≈ 1.73 µM), an MIC (Staphylococcus aureus [2]) of 1 µg/mL (≈ 1.73 µM) and an MIC (Staphylococcus aureus [3]) of 1 µg/mL (≈ 1.73 µM). For the same compound, the MIC (Escherichia coli) was over 64 µg/mL, the Ratio (Staphylococcus aureus [4]) was 2 and the Ratio (Staphylococcus aureus [5]) was 2. The Ratio (Staphylococcus aureus [6]) was 2, the MIC (Staphylococcus aureus [7]) was 1 µg/mL (≈ 1.73 µM) and the MIC (Staphylococcus aureus [8]) was 1 µg/mL (≈ 1.73 µM). The MIC (Staphylococcus aureus [9]) was 1 µg/mL (≈ 1.73 µM), the MIC (Staphylococcus aureus [10]) was 1 µg/mL (≈ 1.73 µM) and the Ratio (Staphylococcus aureus [11]) was 4. The Ratio (Staphylococcus aureus [12]) was 4, the Ratio (Staphylococcus aureus [13]) was 64 and the Ratio (Staphylococcus aureus [14]) was 64. The Ratio (Staphylococcus aureus [15]) was 64 and the Ratio (Staphylococcus aureus [16]) was 64.

Source: ChEMBL document CHEMBL2040848, “Synthesis and bioactivity evaluation of rhodanine derivatives as potential anti-bacterial agents” (2012)
